# Measurements from patent US20080281105A1, “Novel Quinolinium Salts and Derivatives” (IMMUSOL INCORPORATED, priority 2005, published 2008).
# Experiments:
# OVCAR-8 [1] = assay: Cell growth in soft agar culture (alamarBlue); conditions: Homo sapiens, OVCAR-8, 168 h, read-out: IC50 (uM) Soft agar
# W138 = assay: Cell growth in liquid culture (alamarBlue); conditions: W138, 72 h, read-out: IC50 (uM) Liquid culture
# [2] = test system: HCT116 colon cancer cells; conditions: HCT116 xenograft, I.p.
# From the text: Female athymic nude (nu/nu) mice were inoculated with HCT116 colon cancer cells, and the tumors were allowed to grow to a volume of about 150 mm^3.
# T47D = assay: Cell growth in liquid culture (alamarBlue); conditions: Homo sapiens, 72 h, read-out: IC50 (uM) Liquid culture
# DU145 [3] = assay: Cell growth in soft agar culture (alamarBlue); conditions: Homo sapiens, DU-145, 168 h, read-out: IC50 (uM) Soft agar
# MCF7 [4] = assay: Cell growth in liquid culture (alamarBlue); conditions: Homo sapiens, MCF7, 72 h, read-out: IC50 (uM) Liquid culture
# NCI-H460 [5] = assay: Cell growth in liquid culture (alamarBlue); conditions: Homo sapiens, NCI-H460, 72 h, read-out: IC50 (uM) Liquid culture
# MDA-231 = assay: Cell growth in soft agar culture (alamarBlue); conditions: Homo sapiens, MDA-MB-231, 168 h, read-out: IC50 (uM) Soft agar
# Panc-1 = assay: Liquid growth culture with and without added glucose (alamarBlue); assay type: cell-based; conditions: Homo sapiens
# From the text: (§1) The method is as follows:
# HCT-116 = assay: as above; assay type: cell-based; conditions: Homo sapiens
# From the text: as §1
# Pc3M/N [6] = assay: as above; assay type: cell-based; conditions: Homo sapiens, PC-3M
# From the text: as §1
# MDA_MB-435 = assay: Cell growth in soft agar culture (alamarBlue); conditions: Homo sapiens, MDA-MB-435, 168 h, read-out: IC50 (uM) Soft agar
# HCT116 = assay: Cell growth in soft agar culture (alamarBlue); conditions: Homo sapiens, HCT-116, 168 h, read-out: IC50 (uM) Soft agar
# A2780 [7] = assay: Cell growth in soft agar culture (alamarBlue); conditions: Homo sapiens, A2780, 168 h, read-out: IC50 (uM) Soft agar
# OVCAR-8 [8] = assay: Cell growth in liquid culture (alamarBlue); conditions: Homo sapiens, OVCAR-8, 72 h, read-out: IC50 (uM) Liquid culture
# OVCAR-4 = assay: Cell growth in liquid culture (alamarBlue); conditions: Homo sapiens, OVCAR-4, 72 h, read-out: IC50 (uM) Liquid culture
# PC3 = assay: Cell growth in liquid culture (alamarBlue); conditions: Homo sapiens, PC-3, 72 h, read-out: IC50 (uM) Liquid culture
# IMR90 = assay: Cell growth in liquid culture (alamarBlue); conditions: Homo sapiens, IMR-90, 72 h, read-out: IC50 (uM) Liquid culture
# DLD1 = assay: Cell growth in soft agar culture (alamarBlue); conditions: Homo sapiens, DLD-1, 168 h, read-out: IC50 (uM) Soft agar
# DU145 [9] = assay: Cell growth in liquid culture (alamarBlue); conditions: Homo sapiens, DU-145, 72 h, read-out: IC50 (uM) Liquid culture
# NCI-H460 [10] = assay: Cell growth in soft agar culture (alamarBlue); conditions: Homo sapiens, NCI-H460, 168 h, read-out: IC50 (uM) Soft agar
# OVCAR-1 = assay: Cell growth in liquid culture (alamarBlue); conditions: OVCAR1, 72 h, read-out: IC50 (uM) Liquid culture
# MCF7 [11] = assay: Cell growth in soft agar culture (alamarBlue); conditions: Homo sapiens, MCF7, 168 h, read-out: IC50 (uM) Soft agar
# A2780 [12] = assay: Cell growth in liquid culture (alamarBlue); conditions: Homo sapiens, A2780, 72 h, read-out: IC50 (uM) Liquid culture
# A549 = assay: Cell growth in liquid culture (alamarBlue); conditions: Homo sapiens, A549, 72 h, read-out: IC50 (uM) Liquid culture
# HS578 = assay: Cell growth in soft agar culture (alamarBlue); conditions: Hs578, 168 h, read-out: IC50 (uM) Soft agar
# ASPC-1 = assay: Cell growth in liquid culture (alamarBlue); conditions: Homo sapiens, ASPC1, 72 h, read-out: IC50 (uM) Liquid culture
# Pc3M/N [13] = assay: Cell growth in liquid culture (alamarBlue); conditions: Homo sapiens, PC-3M, 72 h, read-out: IC50 (uM) Liquid culture
# PA-1 = assay: Cell growth in liquid culture (alamarBlue); conditions: Homo sapiens, PA-1, 72 h, read-out: IC50 (uM) Liquid culture
smiles,measurement,setting,value
"Cc1cc(/C=C/c2ccc3cc(N(C)C)ccc3[n+]2C)c(C)n1-c1ccccc1 [Example 1, Pyrvinium Phosphate]",IC50,OVCAR-8 [1],0.03 to 0.1 µM
same,IC50,W138,0.1 to 0.3 µM
same,Result: Tumor reduction,[2],Tumor reduction (25%)
same,IC50,T47D,~0.03 µM
same,IC50,DU145 [3],0.3 to 1 µM
same,IC50,MCF7 [4],0.03 to 0.1 µM
same,IC50,NCI-H460 [5],0.1 to 0.33 µM
same,IC50,MDA-231,< 0.03 µM
same,IC80,"Panc-1; PANC-1, Panc-1, (+) Glu",> 1000 nM
same,IC80,"Panc-1; PANC-1, Panc-1, (−) Glu",100 nM
same,IC80,"HCT-116; HCT-116, HCT-116, (+) Glu",1000 nM
same,IC80,"HCT-116; HCT-116, HCT-116, (−) Glu",100 nM
same,IC80,Pc3M/N [6]; (+) Glu,1000 nM
same,IC80,Pc3M/N [6]; (−) Glu,100 nM
same,IC50,MDA_MB-435,0.03 to 0.1 µM
same,IC50,HCT116,0.1 to 0.3 µM
same,IC50,A2780 [7],0.03 to 0.1 µM
same,IC50,OVCAR-8 [8],0.1 to 0.3 µM
same,IC50,OVCAR-4,0.1 to 0.3 µM
same,IC50,PC3,0.1 to 0.3 µM
same,IC50,IMR90,0.1 to 0.3 µM
same,IC50,DLD1,~1 µM
same,IC50,DU145 [9],> 1 µM
same,IC50,NCI-H460 [10],0.03 to 0.1 µM
same,IC50,OVCAR-1,0.03 to 0.1 µM
same,IC50,MCF7 [11],< 0.03 µM
same,IC50,A2780 [12],0.03 to 0.1 µM
same,IC50,A549,0.1 to 0.3 µM
same,IC50,HS578,0.03 to 0.1 µM
same,IC50,ASPC-1,0.3 to 1 µM
same,IC50,Pc3M/N [13],> 1 µM
same,IC50,PA-1,0.03 to 0.1 µM
